Results published in ChEMBL document CHEMBL2073811, “Uptake of the mycotoxin ochratoxin A in liver cells occurs via the cloned organic anion transporting polypeptide” (J Pharmacol Exp Ther, 1996).

Key:
[1] = molecular target: T1, Solute carrier organic anion transporter family member 1A1 (Rattus norvegicus, UniProt P46720); assay: TP_TRANSPORTER: inhibition of Ochratoxin A uptake (OTA: 1 uM, CRC-220: 100uM) in Xenopus laevis oocytes; format: functional, cell-based; settings: oocyte
T1 sequence (P46720 whole entry): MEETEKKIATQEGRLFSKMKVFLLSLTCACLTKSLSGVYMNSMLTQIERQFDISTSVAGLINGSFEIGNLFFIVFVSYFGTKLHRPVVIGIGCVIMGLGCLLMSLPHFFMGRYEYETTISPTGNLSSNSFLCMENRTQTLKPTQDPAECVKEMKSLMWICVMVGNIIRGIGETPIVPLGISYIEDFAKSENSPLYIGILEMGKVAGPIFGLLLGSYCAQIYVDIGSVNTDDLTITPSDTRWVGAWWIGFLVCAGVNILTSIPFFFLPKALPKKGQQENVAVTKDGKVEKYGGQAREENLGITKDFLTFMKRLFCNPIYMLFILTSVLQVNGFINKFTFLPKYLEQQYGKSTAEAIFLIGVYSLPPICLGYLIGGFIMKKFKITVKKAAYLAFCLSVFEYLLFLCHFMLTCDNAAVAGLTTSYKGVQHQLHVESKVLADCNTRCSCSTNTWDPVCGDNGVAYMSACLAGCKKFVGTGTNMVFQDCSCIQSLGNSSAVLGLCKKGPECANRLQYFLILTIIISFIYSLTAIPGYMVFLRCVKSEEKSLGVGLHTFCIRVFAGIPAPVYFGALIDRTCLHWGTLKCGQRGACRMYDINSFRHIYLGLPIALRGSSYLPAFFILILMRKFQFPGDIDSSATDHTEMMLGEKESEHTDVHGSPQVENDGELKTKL

[2] = molecular target: T1, Solute carrier organic anion transporter family member 1A1; assay: TP_TRANSPORTER: uptake in Xenopus laevis oocytes; format: functional, cell-based, Oocyte; settings: Xenopus laevis oocytes expressing the transporter
[3] = molecular target: T1, Solute carrier organic anion transporter family member 1A1; assay: TP_TRANSPORTER: inhibition of Ochratoxin A uptake (OTA: 1 uM, E1S: 100uM) in Xenopus laevis oocytes; format: functional, cell-based; settings: oocyte
[4] = molecular target: T1, Solute carrier organic anion transporter family member 1A1; assay: TP_TRANSPORTER: inhibition of Ochratoxin A uptake (OTA: 1 uM, GC: 100uM) in Xenopus laevis oocytes; format: functional, cell-based; settings: oocyte
[5] = molecular target: T1, Solute carrier organic anion transporter family member 1A1; assay: TP_TRANSPORTER: inhibition of Ochratoxin A uptake (OTA: 1 uM, BSP: 100uM) in Xenopus laevis oocytes; format: functional, cell-based; settings: oocyte

Question: Which Activity [1] does the source give for `COc1cc(C)c(S(=O)(=O)N[C@@H](CC(=O)O)C(=O)N[C@H](Cc2ccc(C(=N)N)cc2)C(=O)N2CCCCC2)c(C)c1C` here?
Answer: Its Activity is “inhibitor [+]”.

Question: `C[C@@H]1Cc2c(Cl)cc(C(=O)N[C@@H](Cc3ccccc3)C(=O)O)c(O)c2C(=O)O1` [3R14S-OCHRATOXIN A] was tested. Which Km [2] did it give?
Answer: Its Km is 16.6 µM.

Question: `C[C@]12CC[C@@H]3c4ccc(OS(=O)(=O)O)cc4CC[C@H]3[C@@H]1CCC2=O` [ESTRONE SULFURIC ACID] was tested. Which Activity [3] did it give?
Answer: The Activity was “inhibitor [+]”.

Question: `C[C@H](CCC(=O)NCC(=O)O)[C@H]1CC[C@H]2[C@@H]3[C@H](O)C[C@@H]4C[C@H](O)CC[C@]4(C)[C@H]3C[C@H](O)[C@]12C` [GLYCOCHOLIC ACID] was tested. Which Activity [4] did it give?
Answer: The Activity was “inhibitor [+]”.

Question: `O=C1OC(c2ccc(O)c(S(=O)(=O)[O-])c2)(c2ccc(O)c(S(=O)(=O)[O-])c2)c2c(Br)c(Br)c(Br)c(Br)c21.[Na+].[Na+]` [SULFOBROMOPHTHALEIN SODIUM] was tested. Which Activity [5] did it give?
Answer: The Activity was “inhibitor [+]”.
